Assay results taken from patent US10508085B2, “Compounds and methods for IDO and TDO modulation, and indications therefor” (Plexxikon Inc., priority 2016, dated 2019).

Legend:
[1] = molecular target: T1, Human Indoleamine 2,3-dioxygenase (IDO) (Homo sapiens, UniProt P14902); assay: Human IDO enzymatic assay (kynurenine level); assay type: biochemical; conditions: 6 nM IDO, 10 μM L-Trp; geometric mean; read-out: IDO1 GMean: IC50 (μM) (Biochemical Assay)
T1 construct: His tag (N); made in house; host or cells: E. coli
Summary of the method: (§1)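 Reactions were stopped with TCA, converting N-formylkynurenine to kynurenine for quantitation, with IC50 by nonlinear regression. IDO: 6 nM enzyme, 10 μM L-Trp, 20 min RT. TDO: 1 nM enzyme, 350 μM L-Trp, 70 min RT, both in pH 6.5 buffer.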

[2] = molecular target: T2, human IDO (IDO1-expressing HEK293 cells) (Homo sapiens, UniProt P14902); assay: Cell based kynurenine assay, IDO1-expressing HEK293 cell clones; conditions: IDO1-expressing HEK293 cells, 24 hours incubation; geometric mean; read-out: HEK293 IDO1 Kynurenine GMean IC50 (μM) (Cellular Assay)
T2 construct: expressed in transfected cells
Summary of the method: (§2)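 Steps: seed IDO1- or TDO-expressing HEK293 cells at 2.5×10^4 per well; add compound dilutions; incubate 24 h; transfer supernatant and determine kynurenine; derive IC50 via nonlinear regression of percent inhibition.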

[3] = molecular target: T3, human TDO (TDO-expressing HEK293 cells) (Homo sapiens, UniProt P48775); assay: Cell based kynurenine assay, TDO-expressing HEK293 cell clones; conditions: TDO-expressing HEK293 cells, 24 hours incubation; geometric mean; read-out: HEK293 TDO Kynurenine GMean IC50 (μM) (Cellular Assay)
T3 construct: expressed in transfected cells
Summary of the method: as §2

[4] = molecular target: T4, Human Tryptophan 2,3-dioxygenase (TDO) (Homo sapiens, UniProt P48775); assay: Human TDO enzymatic assay (kynurenine level); assay type: biochemical; conditions: 1 nM TDO, 350 μM L-Trp; geometric mean; read-out: TDO GMean: IC50 (μM) (Biochemical Assay)
T4 construct: His tag (N); made in house; host or cells: E. coli
Summary of the method: as §1

T2 sequence (P14902 whole entry): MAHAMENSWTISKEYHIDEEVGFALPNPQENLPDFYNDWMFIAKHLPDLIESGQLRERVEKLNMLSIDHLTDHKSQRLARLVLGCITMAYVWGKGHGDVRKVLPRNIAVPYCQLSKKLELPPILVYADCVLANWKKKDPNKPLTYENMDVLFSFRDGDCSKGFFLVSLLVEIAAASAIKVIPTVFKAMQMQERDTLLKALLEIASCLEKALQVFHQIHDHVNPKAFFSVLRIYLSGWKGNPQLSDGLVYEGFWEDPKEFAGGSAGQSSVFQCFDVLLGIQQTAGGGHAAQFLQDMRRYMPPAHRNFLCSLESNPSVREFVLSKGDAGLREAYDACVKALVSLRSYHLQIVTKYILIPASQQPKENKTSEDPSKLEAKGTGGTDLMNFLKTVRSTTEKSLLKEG
T1 sequence (P14902 whole entry): as above
T4 sequence (P48775 whole entry): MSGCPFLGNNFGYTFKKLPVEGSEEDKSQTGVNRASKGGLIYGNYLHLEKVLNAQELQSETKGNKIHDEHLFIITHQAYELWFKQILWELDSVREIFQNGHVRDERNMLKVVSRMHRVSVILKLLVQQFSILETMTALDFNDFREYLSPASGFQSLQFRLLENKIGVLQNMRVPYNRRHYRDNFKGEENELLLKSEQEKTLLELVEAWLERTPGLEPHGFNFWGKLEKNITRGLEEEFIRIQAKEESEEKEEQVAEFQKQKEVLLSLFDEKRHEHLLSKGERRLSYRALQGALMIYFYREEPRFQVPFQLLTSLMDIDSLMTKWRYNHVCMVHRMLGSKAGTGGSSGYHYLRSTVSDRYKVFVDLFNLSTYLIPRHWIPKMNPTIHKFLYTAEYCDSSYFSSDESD
T3 sequence (P48775 whole entry): as above

IC50 [1] [µM] | IC50 [2] [µM] | IC50 [3] [µM] | IC50 [4] [µM] | Compound
0.0001 to 10 | 0.0001 to 10 | 0.0001 to 10 | 0.0001 to 10 | OC(c1cc(Cl)cc2cn[nH]c12)C(C1CCC1)C1CCC1 (centres unmarked) [Compound P-0203, 1-(5-chloro-1H-indazol-7-yl)-2,2-dicyclobutylethan-1-ol]
0.0001 to 10 | 0.0001 to 10 | 0.0001 to 10 | 0.0001 to 10 | OC(c1cc(Cl)cc2cn[nH]c12)C(C1CC1)C1CC1 (centres unmarked) [Compound P-0204, 1-(5-chloro-1H-indazol-7-yl)-2,2-dicyclopropylethan-1-ol]
10 to 100 | > 10 | 0.0001 to 10 | 10 to 100 | CC(O)(c1cc(Cl)cc2cn[nH]c12)C1CCCC1 (centres unmarked) [Compound P-0205, 1-(5-chloro-1H-indazol-7-yl)-1-cyclopentylethan-1-ol]
10 to 100 | > 10 | 0.0001 to 10 | 10 to 100 | OC1(c2cc(Cl)cc3cn[nH]c23)CCC1 [Compound P-0206, 1-(5-chloro-1H-indazol-7-yl)cyclobutan-1-ol]
0.0001 to 10 | 0.0001 to 10 | 0.0001 to 10 | 10 to 100 | CC1(C(O)c2c(Cl)ccc3cn[nH]c23)CCCCC1 (centres unmarked) [Compound P-0207, (6-chloro-1H-indazol-7-yl)(1-methylcyclohexyl)methanol]
0.0001 to 10 | 0.0001 to 10 | 0.0001 to 10 | 0.0001 to 10 | OC(c1cc(Cl)cc2cn[nH]c12)C12CCC(CC1)CC2 (centres unmarked) [Compound P-0208, bicyclo[2.2.2]octan-1-yl(5-chloro-1H-indazol-7-yl)methanol]
0.0001 to 10 | 0.0001 to 10 | 0.0001 to 10 | 0.0001 to 10 | OC(c1cc(Cl)cc2cn[nH]c12)C12CC(C1)C2 (centres unmarked) [Compound P-0209, bicyclo[1.1.1]pentan-1-yl(5-chloro-1H-indazol-7-yl)methanol]
0.0001 to 10 | 0.0001 to 10 | 0.0001 to 10 | 0.0001 to 10 | OC(CC1CCOCC1)c1cc(Cl)cc2cn[nH]c12 (centres unmarked) [Compound P-0210, 1-(5-chloro-1H-indazol-7-yl)-2-(tetrahydro-2H-pyran-4-yl)ethan-1-ol]
0.0001 to 10 | 0.0001 to 10 | 0.0001 to 10 | 0.0001 to 10 | CC1(C(O)c2cc(Cl)cc3cn[nH]c23)COC1 (centres unmarked) [Compound P-0211, (5-chloro-1H-indazol-7-yl)(3-methyloxetan-3-yl)methanol]
0.0001 to 10 | 0.0001 to 10 | 0.0001 to 10 | 0.0001 to 10 | CC(C)(C)C(O)c1cc(Cl)cc2cn[nH]c12 (centres unmarked) [Compound P-0212, 1-(5-chloro-1H-indazol-7-yl)-2,2-dimethylpropan-1-ol]
0.0001 to 10 | 0.0001 to 10 | 0.0001 to 10 | 0.0001 to 10 | CC(C)(CCC#N)C(O)c1cc(Cl)cc2cn[nH]c12 (centres unmarked) [Compound P-0213, 5-(5-chloro-1H-indazol-7-yl)-5-hydroxy-4,4-dimethylpentanenitrile]
0.0001 to 10 | 0.0001 to 10 | 0.0001 to 10 | 0.0001 to 10 | CC(C)(C)C1CC(O)(c2cc(Cl)cc3cn[nH]c23)C1 (centres unmarked) [Compound P-0214, 3-(tert-butyl)-1-(5-chloro-1H-indazol-7-yl)cyclobutan-1-ol]
0.0001 to 10 | 0.0001 to 10 | 0.0001 to 10 | 0.0001 to 10 | CC(C)(C(O)c1cc(Cl)cc2cn[nH]c12)N1CCOCC1 (centres unmarked) [Compound P-0215, 1-(5-chloro-1H-indazol-7-yl)-2-methyl-2-morpholinopropan-1-ol]
> 200 | > 10 | > 10 | 10 to 100 | CC(C)(C(O)c1cc(Cl)cc2cn[nH]c12)N1CCCCC1 (centres unmarked) [Compound P-0216, 1-(5-chloro-1H-indazol-7-yl)-2-methyl-2-(piperidin-1-yl)propan-1-ol]
0.0001 to 10 | 0.0001 to 10 | 0.0001 to 10 | 0.0001 to 10 | CC(C)(C1CCOCC1)C(O)c1cc(Cl)c(F)c2cn[nH]c12 (centres unmarked) [Compound P-0217, 1-(5-chloro-4-fluoro-1H-indazol-7-yl)-2-methyl-2-(tetrahydro-2H-pyran-4-yl)propan-1-ol]
0.0001 to 10 | 0.0001 to 10 | 0.0001 to 10 | 0.0001 to 10 | OC(c1cc(Cl)c(F)c2cn[nH]c12)C(F)(F)C1CCOCC1 (centres unmarked) [Compound P-0218, 1-(5-chloro-4-fluoro-1H-indazol-7-yl)-2,2-difluoro-2-(tetrahydro-2H-pyran-4-yl)ethan-1-ol]

IC50 [1] [µM] | IC50 [2] [µM] | IC50 [3] [µM] | IC50 [4] [µM] | Compound
10 to 100 | > 10 | > 10 | 0.0001 to 10 | O=C(O)C1CCC(C(O)c2cc(Cl)cc3cn[nH]c23)CC1 (centres unmarked) [Compound P-0219, 4-((5-chloro-1H-indazol-7-yl)(hydroxy)methyl)cyclohexane-1-carboxylic acid]
0.0001 to 10 | 0.0001 to 10 | 0.0001 to 10 | 0.0001 to 10 | CC(C)(C1CCOCC1)C(O)c1c(Cl)c(Cl)cc2cn[nH]c12 (centres unmarked) [Compound P-0220, 1-(5,6-dichloro-1H-indazol-7-yl)-2-methyl-2-(tetrahydro-2H-pyran-4-yl)propan-1-ol]
0.0001 to 10 | 0.0001 to 10 | 0.0001 to 10 | 0.0001 to 10 | OC(c1cc(Cl)cc2cn[nH]c12)C1(C2CCOCC2)CC1 (centres unmarked) [Compound P-0221, (5-chloro-1H-indazol-7-yl)(1-(tetrahydro-2H-pyran-4-yl)cyclopropyl)methanol]
0.0001 to 10 | 0.0001 to 10 | 0.0001 to 10 | 0.0001 to 10 | CC(F)(F)C1(C(C)(F)F)CC(O)(c2cc(Cl)cc3cn[nH]c23)C1 [Compound P-0222, 1-(5-chloro-1H-indazol-7-yl)-3,3-bis(1,1-difluoroethyl)cyclobutan-1-ol]
0.0001 to 10 | 0.0001 to 10 | 0.0001 to 10 | 0.0001 to 10 | CCC1(C(O)c2cc(Cl)cc3cn[nH]c23)CCC1 (centres unmarked) [Compound P-0223, (5-chloro-1H-indazol-7-yl)(1-ethylcyclobutyl)methanol]
0.0001 to 10 | 0.0001 to 10 | 0.0001 to 10 | 0.0001 to 10 | CC(C)(C1CC1)C(O)c1cc(Cl)cc2cn[nH]c12 (centres unmarked) [Compound P-0224, 1-(5-chloro-1H-indazol-7-yl)-2-cyclopropyl-2-methylpropan-1-ol]
0.0001 to 10 | 0.0001 to 10 | 0.0001 to 10 | 0.0001 to 10 | OC(c1cc(Cl)cc2cn[nH]c12)C1(C2CC2)CC1 (centres unmarked) [Compound P-0225, [1,1′-bi(cyclopropan)]-1-yl(5-chloro-1H-indazol-7-yl)methanol]
0.0001 to 10 | 0.0001 to 10 | > 10 | 0.0001 to 10 | CS(=O)(=O)N1CC(C(O)c2cc(Cl)cc3cn[nH]c23)C1 (centres unmarked) [Compound P-0226, (5-chloro-1H-indazol-7-yl)(1-(methylsulfonyl)azetidin-3-yl)methanol]
0.0001 to 10 | 0.0001 to 10 | 0.0001 to 10 | 0.0001 to 10 | OC(c1cc(Cl)cc2cn[nH]c12)C12CCC(F)(CC1)CC2 (centres unmarked) [Compound P-0227, (5-chloro-1H-indazol-7-yl)(4-fluorobicyclo[2.2.2]octan-1-yl)methanol]
0.0001 to 10 | 0.0001 to 10 | 0.0001 to 10 | 0.0001 to 10 | CC1(C(O)c2cc(Cl)cc3cn[nH]c23)CC2CC2C1 (centres unmarked) [Compound P-0228, (5-chloro-1H-indazol-7-yl)(3-methylbicyclo[3.1.0]hexan-3-yl)methanol]
0.0001 to 10 | 0.0001 to 10 | 0.0001 to 10 | 0.0001 to 10 | OC(c1cc(Cl)cc2cn[nH]c12)C12CCC(CC1)C2 (centres unmarked) [Compound P-0229, bicyclo[2.2.1]heptan-1-yl(5-chloro-1H-indazol-7-yl)methanol]
10 to 100 | > 10 | > 10 | 10 to 100 | CN(C)C(C)(C)C(O)c1cc(Cl)cc2cn[nH]c12 (centres unmarked) [Compound P-0230, 1-(5-chloro-1H-indazol-7-yl)-2-(dimethylamino)-2-methylpropan-1-ol]
100 to 200 | > 10 | > 10 | 10 to 100 | CC(C)(C(O)c1cc(Cl)cc2cn[nH]c12)N1CCCC1 (centres unmarked) [Compound P-0231, 1-(5-chloro-1H-indazol-7-yl)-2-methyl-2-(pyrrolidin-1-yl)propan-1-ol]
0.0001 to 10 | 0.0001 to 10 | 0.0001 to 10 | 0.0001 to 10 | CC(C)(C1CCOCC1)C(O)c1c(F)c(Cl)cc2cn[nH]c12 (centres unmarked) [Compound P-0232, 1-(5-chloro-6-fluoro-1H-indazol-7-yl)-2-methyl-2-(tetrahydro-2H-pyran-4-yl)propan-1-ol]
10 to 100 | > 10 | > 10 | 10 to 100 | CC(C)(N)CC(O)c1cc(Cl)cc2cn[nH]c12 (centres unmarked) [Compound P-0233, 3-amino-1-(5-chloro-1H-indazol-7-yl)-3-methylbutan-1-ol]
0.0001 to 10 | 0.0001 to 10 | 0.0001 to 10 | 0.0001 to 10 | Cc1ccc2cn[nH]c2c1C(O)C(C)(C)C1CCOCC1 (centres unmarked) [Compound P-0234, 2-methyl-1-(6-methyl-1H-indazol-7-yl)-2-(tetrahydro-2H-pyran-4-yl)propan-1-ol]
